Experiment [1] deals with T1, beta-catenin/TCF4 engagement (Homo sapiens, UniProt P35222).
T1 construct: expressed in transfected cells; host or cells: HEK293
T1 sequence (P35222 1-781): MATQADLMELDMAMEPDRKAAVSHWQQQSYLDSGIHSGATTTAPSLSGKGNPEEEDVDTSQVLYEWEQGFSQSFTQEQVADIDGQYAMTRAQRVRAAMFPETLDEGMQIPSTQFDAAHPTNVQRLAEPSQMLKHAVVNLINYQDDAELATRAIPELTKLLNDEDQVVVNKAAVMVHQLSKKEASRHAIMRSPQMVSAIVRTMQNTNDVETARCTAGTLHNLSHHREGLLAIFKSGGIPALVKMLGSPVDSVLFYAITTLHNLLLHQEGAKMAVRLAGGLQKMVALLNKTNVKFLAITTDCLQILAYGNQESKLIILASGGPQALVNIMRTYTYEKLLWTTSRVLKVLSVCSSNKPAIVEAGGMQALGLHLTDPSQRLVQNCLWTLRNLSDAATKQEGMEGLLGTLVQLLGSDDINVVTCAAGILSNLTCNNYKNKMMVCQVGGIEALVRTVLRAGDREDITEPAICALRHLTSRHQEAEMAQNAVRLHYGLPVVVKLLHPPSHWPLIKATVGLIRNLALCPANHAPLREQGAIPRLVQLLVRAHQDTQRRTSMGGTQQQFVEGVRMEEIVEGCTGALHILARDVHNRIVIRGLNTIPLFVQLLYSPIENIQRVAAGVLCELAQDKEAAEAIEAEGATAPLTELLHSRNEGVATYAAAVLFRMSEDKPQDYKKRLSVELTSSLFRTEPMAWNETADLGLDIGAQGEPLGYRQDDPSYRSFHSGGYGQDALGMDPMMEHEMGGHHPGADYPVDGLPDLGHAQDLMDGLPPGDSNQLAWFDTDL
The experiment in a line: Nano-BRET target engagement assay (B-cat-Halo & TCF4-Luc in HEK293 cells). The experiment is classed as cell-based. Conditions: read-out: NanoBRET Abs IC50.

The target in experiment [2] is T2, full-length beta-Catenin (Uniprot ID P35222) (Homo sapiens, UniProt P35222).
T2 construct: 10 nM full-length beta-Catenin (Uniprot ID P35222)
T2 sequence (P35222 1-781): T1 sequence (P35222 1-781)
Description: Fluorescence polarization IC50 (beta-catenin / 5FAM-TCF4 10-53 competition). The experiment is classed as binding. In general terms: In fluorescence polarisation assays a small probe gives low polarisation when free and higher when bound to something large.

Where [3] appears, read: fluorescence polarization; read-out: beta-Catenin FP IC50.
The mark [4] stands for this setting: read-out: beta-Catenin FP IC50; fluorescence polarization.

Like-named read-outs stand apart in the source and are kept apart here.

The IC50 is the concentration needed to halve the response being measured. As for `CC(=O)N1CCC[C@]12CC=CCCCC1(CCCC=CCCCOC(=O)N3CC[C@@](C(=O)N[C@@H](Cc4ccsc4)C(=O)N[C@@H](Cc4csc5ccccc45)C(=O)N[C@@H](CCC(N)=O)C(N)=O)(C3)NC(=O)[C@H](CCC(=O)N3CCOCC3)NC(=O)[C@H](Cc3ccccc3)NC(=O)[C@H](C)NC(=O)[C@H](C)NC(=O)[C@H](CN(CC(=O)O)CC(F)(F)F)NC(=O)[C@H](CC(=O)O)NC1=O)NC(=O)[C@H](CC(C)(C)C)NC(=O)[C@H](CC(=O)O)NC2=O` (stereo partly drawn) [I-1943, Ac-PL3-Asp-Npg-B5-Asp-TfeGA-Ala-Ala-Phe-[Morph]GlnR-PyrS2-3Thi-BztA-Gln-NH2], the values for the 50% inhibitory concentration (IC50) in experiment [1] and in experiment [2] (setting [3]) were 3800 nM and 7 nM, respectively.

Regarding `CC(=O)N1CCC[C@]12CC=CCCCC1(CCCC=CCCCOC(=O)N3CC[C@@](C(=O)N[C@@H](Cc4ccsc4)C(=O)N[C@@H](Cc4csc5ccccc45)C(=O)N[C@@H](CCC(N)=O)C(N)=O)(C3)NC(=O)[C@H](CC(C)C)NC(=O)[C@H](Cc3ccccc3)NC(=O)[C@H](C)NC(=O)[C@H](C)NC(=O)[C@H](CCC(=O)S)NC(=O)[C@H](CC(=O)O)NC1=O)NC(=O)[C@H](CC(C)(C)C)NC(=O)[C@H](CC(=O)O)NC2=O` (stereo partly drawn) [I-1949, Ac-PL3-Asp-Npg-B5-Asp-GluSH-Ala-Ala-Phe-Leu-PyrS2-3Thi-BztA-Gln-NH2], the IC50 is 28500 nM in experiment [1] and 96 nM in experiment [2] (setting [3]).

With `CC(=O)N1CCC[C@]12CC=CCCCC1(CCCC=CCCCOC(=O)N3CC[C@@](C(=O)N[C@@H](Cc4ccsc4)C(=O)N[C@@H](Cc4csc5ccccc45)C(=O)N[C@@H](CCC(N)=O)C(N)=O)(C3)NC(=O)[C@H](CC(C)C)NC(=O)[C@H](Cc3ccccc3)NC(=O)[C@H](C)NC(=O)[C@H](C)NC(=O)[C@H](CCC(=O)OCCSSc3ccccn3)NC(=O)[C@H](CC(=O)O)NC1=O)NC(=O)[C@H](CC(C)(C)C)NC(=O)[C@H](CC(=O)O)NC2=O` (stereo partly drawn) [I-1951, Ac-PL3-Asp-Npg-B5-Asp-[EtSSpy]GluE-Ala-Ala-Phe-Leu-PyrS2-3Thi-BztA-Gln-NH2], the concentration for half-maximal inhibition (IC50) was above 20000 nM in experiment [1] and 264 nM in experiment [2] (setting [3]).

Consider `CC(=O)N1CCC[C@]12CC=CCCCC1(CCCC=CCCCOC(=O)N3CC[C@@](C(=O)N[C@@H](Cc4ccsc4)C(=O)N[C@@H](Cc4csc5ccccc45)C(=O)N[C@@H](CCC(N)=O)C(N)=O)(C3)NC(=O)[C@H](CC(C)C)NC(=O)[C@H](Cc3ccccc3)NC(=O)[C@H](C)NC(=O)[C@H](C)NC(=O)[C@H](CC(=O)O)NC(=O)[C@H](CC(=O)O)NC1=O)NC(=O)[C@H](CC(C)(C)C)NC(=O)[C@H](CC(=O)OCCSSc1ccccc1)NC2=O` (stereo partly drawn) [I-1952, Ac-PL3-[EtSSPh]AspE-Npg-B5-Asp-Asp-Ala-Ala-Phe-Leu-PyrS2-3Thi-BztA-Gln-NH2], for which the half-maximal inhibitory concentration (IC50) in experiment [1] was above 20000 nM; in experiment [2] (setting [4]) it was 923 nM.

Turning to `CC(=O)N1CCC[C@]12CC=CCCCC1(CCCC=CCCCOC(=O)N3CC[C@@](C(=O)N[C@@H](Cc4ccsc4)C(=O)N[C@@H](Cc4csc5ccccc45)C(=O)N[C@@H](CCC(N)=O)C(N)=O)(C3)NC(=O)[C@H](CC(C)C)NC(=O)[C@H](Cc3ccccc3)NC(=O)[C@H](C)NC(=O)[C@H](C)NC(=O)[C@H](CC(=O)O)NC(=O)[C@H](CC(=O)O)NC1=O)NC(=O)[C@H](CC(C)(C)C)NC(=O)[C@H](CC(=O)OCCSSc1ccccc1)NC2=O` (stereo partly drawn) [I-1953, Ac-PL3-[EtSSPh]AspE-Npg-B5-Asp-Asp-Ala-Ala-Phe-Leu-PyrS2-3Thi-BztA-Gln-NH2], the IC50 in experiment [1] is above 20000 nM; in experiment [2] (setting [4]), 306 nM.

For the compound `CC(=O)N1CCC[C@]12CC=CCCCC1(CCCC=CCCCOC(=O)N3CC[C@@](C(=O)N[C@@H](Cc4ccsc4)C(=O)N[C@@H](Cc4csc5ccccc45)C(=O)N[C@@H](CCC(N)=O)C(N)=O)(C3)NC(=O)[C@H](CC(C)C)NC(=O)[C@H](Cc3ccccc3)NC(=O)[C@H](C)NC(=O)[C@H](C)NC(=O)[C@H](CC(=O)O)NC(=O)[C@H](CC(=O)OCCSSc3ccccc3)NC1=O)NC(=O)[C@H](CC(C)(C)C)NC(=O)[C@H](CC(=O)O)NC2=O` (stereo partly drawn) [I-1954, Ac-PL3-Asp-Npg-B5-[EtSSPh]AspE-Asp-Ala-Ala-Phe-Leu-PyrS2-3Thi-BztA-Gln-NH2], the IC50 is above 20000 nM in experiment [1] and 994 nM in experiment [2] (setting [4]).

In the case of `CC(=O)N1CCC[C@]12CC=CCCCC1(CCCC=CCCCOC(=O)N3CC[C@@](C(=O)N[C@@H](Cc4ccsc4)C(=O)N[C@@H](Cc4csc5ccccc45)C(=O)N[C@@H](CCC(N)=O)C(N)=O)(C3)NC(=O)[C@H](CC(C)C)NC(=O)[C@H](Cc3ccccc3)NC(=O)[C@H](C)NC(=O)[C@H](C)NC(=O)[C@H](CCC(=O)OCCSSc3ccccc3)NC(=O)[C@H](CC(=O)O)NC1=O)NC(=O)[C@H](CC(C)(C)C)NC(=O)[C@H](CC(=O)O)NC2=O` (stereo partly drawn) [I-1958, Ac-PL3-Asp-Npg-B5-Asp-[EtSSPh]GluE-Ala-Ala-Phe-Leu-PyrS2-3Thi-BztA-Gln-NH2], the results for the 50% inhibitory concentration (IC50) in experiment [1] and in experiment [2] (setting [4]) were above 20000 nM and 1540 nM, respectively.

Regarding `CCCCCCSSCCOC(=O)C[C@@H]1NC(=O)[C@]2(CC=CCCCC3(CCCC=CCCCOC(=O)N4CC[C@@](C(=O)N[C@@H](Cc5ccsc5)C(=O)N[C@@H](Cc5csc6ccccc56)C(=O)N[C@@H](CCC(N)=O)C(N)=O)(C4)NC(=O)[C@H](CC(C)C)NC(=O)[C@H](Cc4ccccc4)NC(=O)[C@H](C)NC(=O)[C@H](C)NC(=O)[C@H](CC(=O)O)NC(=O)[C@H](CC(=O)O)NC3=O)NC(=O)[C@H](CC(C)(C)C)NC1=O)CCCN2C(C)=O` (stereo partly drawn) [I-1959, Ac-PL3-[EtSSHex]AspE-Npg-B5-Asp-Asp-Ala-Ala-Phe-Leu-PyrS2-3Thi-BztA-Gln-NH2], the IC50 was above 20000 nM in experiment [1] and 412 nM in experiment [2] (setting [3]).

With `CCCCCCSSCCOC(=O)C[C@@H]1NC(=O)C2(CCCC=CCCCOC(=O)N3CC[C@@](C(=O)N[C@@H](Cc4ccsc4)C(=O)N[C@@H](Cc4csc5ccccc45)C(=O)N[C@@H](CCC(N)=O)C(N)=O)(C3)NC(=O)[C@H](CC(C)C)NC(=O)[C@H](Cc3ccccc3)NC(=O)[C@H](C)NC(=O)[C@H](C)NC(=O)[C@H](CC(=O)O)NC1=O)CCCC=CC[C@]1(CCCN1C(C)=O)C(=O)N[C@@H](CC(=O)O)C(=O)N[C@@H](CC(C)(C)C)C(=O)N2` (stereo partly drawn) [I-1961, Ac-PL3-Asp-Npg-B5-[EtSSHex]AspE-Asp-Ala-Ala-Phe-Leu-PyrS2-3Thi-BztA-Gln-NH2], the IC50 was above 20000 nM in experiment [1] and 2100 nM in experiment [2] (setting [3]).

`CCCCCCSSCCOC(=O)C[C@@H]1NC(=O)[C@H](CC(=O)O)NC(=O)C2(CCCC=CCCCOC(=O)N3CC[C@@](C(=O)N[C@@H](Cc4ccsc4)C(=O)N[C@@H](Cc4csc5ccccc45)C(=O)N[C@@H](CCC(N)=O)C(N)=O)(C3)NC(=O)[C@H](CC(C)C)NC(=O)[C@H](Cc3ccccc3)NC(=O)[C@H](C)NC(=O)[C@H](C)NC1=O)CCCC=CC[C@]1(CCCN1C(C)=O)C(=O)N[C@@H](CC(=O)O)C(=O)N[C@@H](CC(C)(C)C)C(=O)N2` (stereo partly drawn) [I-1962, Ac-PL3-Asp-Npg-B5-Asp-[EtSSHex]AspE-Ala-Ala-Phe-Leu-PyrS2-3Thi-BztA-Gln-NH2]: the IC50 is above 20000 nM in experiment [1] and 1600 nM in experiment [2] (setting [3]).

Turning to `CCSSCCOC(=O)C[C@@H]1NC(=O)[C@]2(CC=CCCCC3(CCCC=CCCCOC(=O)N4CC[C@@](C(=O)N[C@@H](Cc5ccsc5)C(=O)N[C@@H](Cc5csc6ccccc56)C(=O)N[C@@H](CCC(N)=O)C(N)=O)(C4)NC(=O)[C@H](CC(C)C)NC(=O)[C@H](Cc4ccccc4)NC(=O)[C@H](C)NC(=O)[C@H](C)NC(=O)[C@H](CC(=O)O)NC(=O)[C@H](CC(=O)O)NC3=O)NC(=O)[C@H](CC(C)(C)C)NC1=O)CCCN2C(C)=O` (stereo partly drawn) [I-1963, Ac-PL3-[EtSSEt]AspE-Npg-B5-Asp-Asp-Ala-Ala-Phe-Leu-PyrS2-3Thi-BztA-Gln-NH2], the IC50 in experiment [1] amounted to 25600 nM; in experiment [2] (setting [3]) it was 326 nM.

As to `CCSSCCOC(=O)C[C@@H]1NC(=O)[C@H](CC(=O)O)NC(=O)C2(CCCC=CCCCOC(=O)N3CC[C@@](C(=O)N[C@@H](Cc4ccsc4)C(=O)N[C@@H](Cc4csc5ccccc45)C(=O)N[C@@H](CCC(N)=O)C(N)=O)(C3)NC(=O)[C@H](CC(C)C)NC(=O)[C@H](Cc3ccccc3)NC(=O)[C@H](C)NC(=O)[C@H](C)NC1=O)CCCC=CC[C@]1(CCCN1C(C)=O)C(=O)N[C@@H](CC(=O)O)C(=O)N[C@@H](CC(C)(C)C)C(=O)N2` (stereo partly drawn) [I-1965, Ac-PL3-Asp-Npg-B5-Asp-[EtSSEt]AspE-Ala-Ala-Phe-Leu-PyrS2-3Thi-BztA-Gln-NH2], the IC50 in experiment [1] was determined as 25200 nM; in experiment [2] (setting [3]) it was 633 nM.

Turning to `CC(=O)N1CCC[C@]12CC=CCCCC[C@@](C)(C(=O)N[C@@H](CC(=O)O)C(=O)N[C@@H](CC(=O)O)C(=O)N[C@@H](C)C(=O)N[C@@H](C)C(=O)N[C@@H](Cc1ccccc1)C(=O)N[C@@H](CC(C)C)C(=O)NC(C)(C)C(=O)N[C@@H](Cc1ccsc1)C(=O)N[C@@H](Cc1csc3ccccc13)C(=O)N[C@@H](CCC(N)=O)C(N)=O)NC(=O)[C@H](CC(C)(C)C)NC(=O)[C@H](CC(=O)O)NC2=O` [I-1978, Ac-PL3-Asp-Npg-S6-Asp-Asp-Ala-Ala-Phe-Leu-Aib-3Thi-BztA-Gln-NH2], the IC50 in experiment [1] is above 20000 nM; in experiment [2] (setting [3]), 145 nM.

The record behind these values is patent US20240116985A1, “STAPLED PEPTIDES AND METHODS THEREOF” (priority 2020, published 2024).
